In patent US20210244057A1, “SWEETENER POWDER COMPOSITION AND PREPARATION METHOD THEREFOR” (SAMYANG CORPORATION, priority 2018, published 2021):

Legend:
[1] = Sensory evaluation of sweetener powder by 15 panelists; type: in vivo; conditions: score on a scale of 5 points, 10% Brix solution
Method: For the sensory evaluation, the powders prepared in Examples 5 and 6 were used as an experimental group, and sugar was used as a control group. Each sample was dissolved to a concentration of 10% Brix and prepared to become the same temperature. 10 ml of each sample was collected and provided. It was expressed as a three-digit number randomly extracted using a random number table. The sample presentation order was always randomly determined, and a lukewarm water that could rinse the mouth was provided together to inspectors. The sensory laboratory was maintained at a constant temperature (25±1° C.) and no odor.
The sensory inspectors selected 15 panelists who have a high level of understanding of sensory tests and have experience in sensory tests. Training was conducted three times a week for one month, and it took an average of 30 minutes for each training session. As for the content and method of evaluation, the score was evaluated on a scale of 5 points for the intensity of sweet taste, persistence of sweet taste, body taste, and bitter taste of the control group and the experimental group. The criteria of sweet taste intensity was compared with the standard sample sugar 10% solution as 4.5 points. The closer to 1 point, the lighter the body taste, and the closer to 5 points, the heavier the taste was.

[2] = Glass transition temperature (Tg) by differential scanning calorimetry (DSC), ASTM D3418; type: physicochemical; conditions: raw material: crystalline allulose in powder state
Method: In order to measure the glass transition temperature value (Tg) of the powder product obtained in Examples 1 to 4, and Example 6, differential scanning calorimetry (DSC) analysis was performed according to the method of ASTM D3418, and the specific DSC analysis conditions are as follows.
Equipment name: DSC[differential scanning calorimetry]
Manufacturer: Perkin Elmer
Method: 30 to 250° C., 10° C./min temperature rise, N2 gas purge
The liquid product of Comparative Example 1 was not spray-dried, and measured by the glass transition temperature of the powder obtained by freeze-drying the liquid product. Allulose was measured by the glass transition temperature of crystalline allulose, Reference Example 2 was measured by the glass transition temperature of commercially available indigestible maltodextrin (Samyang Corporation, indigestible maltodextrin, DE 14.9, dietary fiber content 85%), and Reference Example 3 and Reference Example 4 were measured by pulverizing commercially available maltodextrin (Samyang Corporation., Genedex) and commercially available starch syrup (Samyang Corporation, low-intensity starch syrup) at the glass transition temperature.

Compound `OC[C@H]1O[C@@](CO)(O[C@H]2O[C@H](CO)[C@@H](O)[C@H](O)[C@H]2O)[C@@H](O)[C@@H]1O` [Control group, sugar] has a Body taste ([1]; 1 = lighter, 5 = heavier) of 3.3, a Bitter residual taste [1] of 2.2 and a Sweet taste persistence [1] of 3.2. For the same compound, the Sweet taste ([1]; sugar 10% solution standard = 4.5 points) was 4.3.

Work on `O=C(CO)C(O)C(O)C(O)CO` (centres unmarked) [Crystalline allulose, allulose] yielded a Tg [2] of −5.5 °C.
